# Values joined by “and” are separate entries in the source; they are usually repeats but may differ in a detail not shown here. Equal entries are not always repeated. Toxic doses and inconclusive results are not listed.
# Test system: BDF1 mice, P388 leukemia ip, median survival T/C
# Assay: NCI In Vivo Anticancer Drug Screen. Data for tumor model P388 Leukemia (intraperitoneal) in B6D2F1 (BDF1) mice
# Settings: endpoint: median survival time, higher = longer survival
# Outline: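 Compound-treated tumour-bearing mice were compared with vehicle-treated controls. Survival was recorded, and the value is the treated-group measurement divided by the control-group measurement (T/C).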
# [1] = dose: 50.0 mg/kg/injection, schedule: Q01DX009 (ip), vehicle: saline with Tween-80
# [2] = dose: 100.0 mg/kg/injection, schedule: Q01DX009 (ip), vehicle: saline with Tween-80
# [3] = dose: 200.0 mg/kg/injection, schedule: Q01DX009 (ip), vehicle: saline with Tween-80
# [4] = dose: 6.25 mg/kg/injection, schedule: Q01DX009 (ip), vehicle: saline
# [5] = dose: 25.0 mg/kg/injection, schedule: Q04DX003 (ip), vehicle: saline with Tween-80
# [6] = dose: 50.0 mg/kg/injection, schedule: Q04DX003 (ip), vehicle: saline with Tween-80
# [7] = dose: 100.0 mg/kg/injection, schedule: Q04DX003 (ip), vehicle: saline with Tween-80
# [8] = dose: 12.5 mg/kg/injection, schedule: Q01DX009 (ip), vehicle: saline
# [9] = dose: 25.0 mg/kg/injection, schedule: Q01DX009 (ip), vehicle: saline
structure (smiles),measurement,setting,value
COC(=O)c1ccccc1OP(=O)(N(C)C)N(C)C,T/C,[1],94 % of control
same,T/C,[2],110 % of control
same,T/C,[3],105 % of control
NC(=O)c1ccc[n+](Cc2c(Cl)cccc2Cl)c1,T/C,"dose: 0.29 mg/kg/injection, schedule: Q01DX009 (ip), vehicle: saline",105 % of control
same,T/C,"dose: 0.44 mg/kg/injection, schedule: Q01DX009 (ip), vehicle: saline",115 % of control
same,T/C,"dose: 1.2 mg/kg/injection, schedule: Q04DX003 (ip), vehicle: saline",122 % of control
same,T/C,"dose: 1.25 mg/kg/injection, schedule: Q01DX009 (ip), vehicle: saline",96 % of control
same,T/C,"dose: 1.56 mg/kg/injection, schedule: Q01DX009 (ip), vehicle: saline",160 % of control
same,T/C,"dose: 2.5 mg/kg/injection, schedule: Q01DX009 (ip), vehicle: saline",96 % of control
same,T/C,"dose: 3.12 mg/kg/injection, schedule: Q01DX009 (ip), vehicle: saline",185 % of control
same,T/C,"dose: 4.12 mg/kg/injection, schedule: Q01DX009 (ip), vehicle: saline",168 % of control
same,T/C,"dose: 5.0 mg/kg/injection, schedule: Q01DX009 (ip), vehicle: saline",96 % of control
same,T/C,[4],154 % of control and 191 % of control and 200 % of control
same,T/C,"dose: 8.9 mg/kg/injection, schedule: Q04DX003 (ip), vehicle: saline",163 % of control
same,T/C,"dose: 10.0 mg/kg/injection, schedule: Q01DX009 (ip), vehicle: saline",94 % of control
same,T/C,"dose: 13.5 mg/kg/injection, schedule: Q04DX003 (ip), vehicle: saline",154 % of control and 158 % of control
same,T/C,"dose: 20.0 mg/kg/injection, schedule: Q01DX009 (ip), vehicle: saline",109 % of control
O=C1C=CCCCC1,T/C,"dose: 25.0 mg/kg/injection, schedule: Q01DX009 (ip), vehicle: saline with Tween-80",109 % of control
same,T/C,[5],103 % of control
same,T/C,[1],109 % of control and 112 % of control
same,T/C,[6],88 % of control
same,T/C,[2],104 % of control
same,T/C,[7],100 % of control
CC1(C)N=C(N)N=C(N)N1c1cccc(CCCCc2cccc(S(=O)(=O)F)c2)c1,T/C,"dose: 1.5 mg/kg/injection, schedule: Q04DX003 (ip), vehicle: saline",118 % of control
same,T/C,"dose: 4.0 mg/kg/injection, schedule: Q04DX003 (ip), vehicle: saline with Tween-80",109 % of control
same,T/C,"dose: 6.0 mg/kg/injection, schedule: Q04DX003 (ip), vehicle: saline with Tween-80",113 % of control
same,T/C,[4],108 % of control
same,T/C,"dose: 9.0 mg/kg/injection, schedule: Q04DX003 (ip), vehicle: saline with Tween-80",118 % of control
same,T/C,[8],116 % of control
same,T/C,[9],116 % of control
CC([OH2+])CNCCN.CC([OH2+])CNCCN.O=S(=O)([O-])[O-].[Cu+2] (stereo not drawn),T/C,[4],101 % of control
same,T/C,[8],91 % of control
same,T/C,[9],94 % of control
CC[C@@H]1C[C@H]2CC3c4c(c5cc(OC)ccc5n4C)CCN(C2)C31,T/C,[1],102 % of control
same,T/C,[2],105 % of control
same,T/C,[3],102 % of control
CN(N)c1ccccc1,T/C,"dose: 6.25 mg/kg/injection, schedule: Q04DX003 (ip), vehicle: saline with Tween-80",93 % of control
same,T/C,"dose: 12.5 mg/kg/injection, schedule: Q04DX003 (ip), vehicle: saline with Tween-80",95 % of control
same,T/C,[5],90 % of control
same,T/C,[6],104 % of control and 105 % of control
same,T/C,[7],113 % of control
same,T/C,"dose: 200.0 mg/kg/injection, schedule: Q04DX003 (ip), vehicle: saline with Tween-80",123 % of control
C1OCC2[CH2][Hg][S][Hg][CH2]C1O2,T/C,"dose: 1.25 mg/kg/injection, schedule: Q01DX010 (ip), vehicle: saline",109 % of control
same,T/C,"dose: 2.5 mg/kg/injection, schedule: Q01DX010 (ip), vehicle: saline",104 % of control
same,T/C,"dose: 5.0 mg/kg/injection, schedule: Q01DX010 (ip), vehicle: saline",109 % of control
same,T/C,"dose: 10.0 mg/kg/injection, schedule: Q01DX010 (ip), vehicle: saline",122 % of control
CC1(C)N=C(N)N=C(N)N1c1ccc(OCC(=O)N2CCOCC2)cc1,T/C,[9],113 % of control
same,T/C,"dose: 50.0 mg/kg/injection, schedule: Q01DX009 (ip), vehicle: saline",113 % of control

# Source: PubChem BioAssay AID328 (DTP/NCI, 2004)
